From patent US6177103A, “Processes to generate submicron particles of water-insoluble compounds” (RTP Pharma, Inc., priority 1999, dated 2001)

Tests used:
[1] = Particle sizing by photon correlation spectroscopy, fenofibrate microparticles by RELGS process (Example 2); format: physicochemical; conditions: Lipoid E-80 and Tween-80 in liquefied carbon dioxide at 3000 psi expanded into water, 22° C.
Description: The particle sizing was performed by photon correlation spectroscopy using Submicron Particle Sizer-Autodilute Model 370 (NICOMP Particle Sizing Systems, Santa Barbara, Calif.). This instrument provides number weighted, intensity weighted, and volume weighted particle size distributions as well as multi-modality of the particle size distribution, if present.

[2] = cited from earlier work

CC(C)OC(=O)C(C)(C)Oc1ccc(C(=O)c2ccc(Cl)cc2)cc1 [Fenofibrate, fenofibrate]
mean particle size [1]: about 200 nm

CC1=C(/C=C/C(C)=C/C=C/C(C)=C/C=C/C=C(C)/C=C/C=C(C)/C=C/C2=C(C)CCCC2(C)C)C(C)(C)CCC1 [beta-carotene]
nanoparticle size ([2]; expansion of ethane into a viscous gelatin solution): 300 nm

CC[C@H](C)C(=O)O[C@H]1C[C@@H](C)C=C2C=C[C@H](C)[C@H](CC[C@@H]3C[C@@H](O)CC(=O)O3)[C@H]21 [lovastatin]
particle size ([2]; micro-particles by rapid expansion from liquefied-gas solution in the supercritical region, most particle sizes reported for organic materials): 5-100 micron
